Data: patent US10519107B2, “Sulfonamide compounds and their use as STAT5 inhibitors” (Governing Council of the University of Toronto, priority 2014, dated 2019)
“Also recorded” adds a separate entry of the source.

Key:
[1] = molecular target: wildtype STAT3 protein (Homo sapiens, UniProt P40763); experiment: Fluorescence polarization competitive binding, STAT3; settings: FP; converted from IC50 with Equation 1
Experimental: Binding of compounds of the disclosure to the STAT5b SH2 domain was assessed using fluorescence polarization assays similar to those previously reported.^15 Analogous assays were also performed with STAT3 protein to determine the specificity of the compounds (13a-d). Fluorescence assays were performed in flat black 384-well plates (Corning) and fluorescence polarization measurements were taken with the Infinite M1000 machine (Tecan, Crailsheim, Germany). The buffer conditions for all assays were 20 mM HEPES, 50 mM NaCl, 1 mM EDTA, 2 mM dithiothreitol, pH 7.5 and the final DMSO concentration in the wells was kept constant at 10%.
Calibration curves for the wildtype STAT3 and STAT5b proteins were derived by incubating a 10 nM final concentration of fluoresceinated-phosphopeptide (5-FAM-pYLPQTC (SEQ ID NO:1) and 5-FAM-GpYLVLDKW (SEQ ID NO:2) for STAT3 and STAT5B, respectively), which are known to bind the SH2 domains, with increasing concentrations of protein (as shown in FIG. 3). The point at which 80% of the fluoresceinated-phosphopeptide was bound was used as the optimal protein concentration required for the competitive fluorescent polarization assays.
For the STAT5b fluorescence polarization assays, the 5-FAM-GpYLVLDKW (SEQ ID NO:2) peptide and STAT5b protein were first incubated for 30 minutes at room temperature. Compounds were titrated at concentrations ranging from 1->60,000 nM and incubated for a further 15 minutes at which point fluorescence polarization measurements were taken in triplicate. The final well concentrations of the fluoresceinated-phosphopeptide and STAT5B were 10 nM and 250 nM, respectively. The same protocol was used for the analogous STAT3 FP assays, except that the 5-FAM-pYLPQTC (SEQ ID NO:1) peptide was used as a probe and the final STAT3 concentration was 150 nM in each well.
The resulting fluorescence polarization measurements were normalized and plotted against compound concentration on a logarithmic scale. The raw data was fitted with a standard dose-normalized response inhibition curve using GraphPad Prism 6 software. The IC50 values were converted to Ki values using Equation 1, which corrects for protein concentration and is a more accurate determination of inhibitory constants in a fluorescence polarization assay than the Cheng-Pruskoff equation.^15 All inhibitory constants and calculated Ki values are summarized in Table 1.
Modified Cheng-Pruskoff equation containing a correction factor for protein concentration.

[2] = system: healthy human CD34+ umbilical cord cells; experiment: Cell viability, healthy CD34+ umbilical cord cells; format: cell-based
[3] = molecular target: STAT3 (Homo sapiens, UniProt P40763); experiment: SPR binding, His-tagged STAT3; settings: 25° C., Langmuir 1:1 binding model
Sequence of STAT3 (P40763 whole entry): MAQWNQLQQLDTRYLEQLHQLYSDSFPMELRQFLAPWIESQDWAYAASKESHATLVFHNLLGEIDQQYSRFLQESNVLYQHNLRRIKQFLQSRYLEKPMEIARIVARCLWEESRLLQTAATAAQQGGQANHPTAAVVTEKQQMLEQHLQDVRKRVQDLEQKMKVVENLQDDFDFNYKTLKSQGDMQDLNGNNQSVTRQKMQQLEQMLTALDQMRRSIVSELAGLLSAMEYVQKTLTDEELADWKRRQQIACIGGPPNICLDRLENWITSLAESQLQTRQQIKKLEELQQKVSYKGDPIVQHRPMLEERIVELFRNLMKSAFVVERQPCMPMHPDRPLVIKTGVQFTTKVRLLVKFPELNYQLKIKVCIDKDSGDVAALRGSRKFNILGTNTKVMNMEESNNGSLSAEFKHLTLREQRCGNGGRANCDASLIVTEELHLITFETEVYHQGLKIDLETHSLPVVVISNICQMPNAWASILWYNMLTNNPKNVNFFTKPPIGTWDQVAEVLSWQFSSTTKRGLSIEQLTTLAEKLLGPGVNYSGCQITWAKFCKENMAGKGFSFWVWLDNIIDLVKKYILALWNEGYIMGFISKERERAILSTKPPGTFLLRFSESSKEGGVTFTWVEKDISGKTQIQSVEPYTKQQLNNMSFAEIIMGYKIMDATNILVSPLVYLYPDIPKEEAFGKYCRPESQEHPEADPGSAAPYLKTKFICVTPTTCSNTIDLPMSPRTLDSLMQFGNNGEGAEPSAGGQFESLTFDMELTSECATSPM
Experimental: Interactions of His-tagged STAT3 and STAT5 with small molecules were investigated using SPR spectroscopy. The binding experiments were carried on a ProteOn XPR36 (Bio-Rad) biosensor at 25° C. using the HTE sensor chip (Bio-Rad, Ontario, Canada). The flow cells of the sensor chip were loaded with a nickel solution at 30 μL/min for 120 s to saturate the Tris-NTA surface with Ni(II) ions. […] When the injection of the compounds was completed, running buffer was allowed to flow over the immobilized substrates for the non-specifically bound inhibitors to dissociate for 600 s. Following dissociation of the compounds, the chip surface was regenerated with an injection of 1 M NaCl at a flow rate of 100 μL/min for 18 s. Interspot channel reference was used for non-specific binding corrections and the blank channel used with each analyte injection served as a double reference to correct for possible baseline drift. Data were analysed using ProteOn Manager Software version 3.1.

[4] = system: MV-4;11 (FLT3-ITD) AML cells; experiment: CellTiter-Blue cell viability assay, MV-4;11; format: cell-based, Human
Experimental: Human erythroleukemia K562 and MV-4-11 cells were cultured in Iscove's modified dulbecco's medium (Gibco) supplemented with 10% FBS (Sigma). Breast carcinoma lines MDA-MB-231 and MDA-MB-468 were grown in dulbecco's modified eagles medium (DMEM) supplemented with 10% FBS (sigma). For downregulation of STAT5 activity, cells were treated with 5, 10, 15, 20 μM of 13a-d STAT5 compounds, for 3 h and 5 h time points. As a control, cells were treated with the DMSO alone.
Cell viability was assessed following treatment at various concentrations of inhibitor (0.78-50 μM) using a CellTiter-Blue cell viability assay (72 hours).

Sequence of wildtype STAT3 protein (P40763 whole entry, species assumed, the tested form may be a part): as the sequence (P40763 whole entry) above

In the case of CC(C)(C)c1cc(CN(C(=O)CN(Cc2ccc(Cl)cc2)S(=O)(=O)c2c(F)c(F)c(F)c(F)c2F)c2ccc(C(=O)O)c(O)c2)cc(C(C)(C)C)c1 [Compound 13a, 4-(2-((N-(4-chlorobenzyl)-2,3,4,5,6-pentafluorophenyl)sulfonamido)-N-(3,5-di-tert-butylbenzyl)acetamido)-2-hydroxybenzoic Acid], the Ki [1] is reported as greater than 60 µM, the “effect on cell viability of healthy CD34+ cells” value ([2]; 10 μM) is reported as “little reduction in cell viability; also recorded: little effect” and the “difference in sensitivity CD34+ vs MV-4;11 cells” value ([2]; therapeutic window) is reported as “approximate order of magnitude difference”. For the same compound, the Kd [3] was 0.287 ± 0.029 µM, the “effect on MV-4;11 cells” value ([4]; 10 μM) was “abolished” and the IC50 ([4]; Homo sapiens, MV4-11, 72 hours, CellTiter-Blue) was 3.5 µM.
